Data on one compound can be found in patent US5658939A, “Methionine sulfone and S-substituted cysteine sulfone derivatives as enzyme inhibitors” (Corvas International Inc., priority 1995, dated 1997).

Like-named read-outs stand apart in the source and are kept apart here.

Assay [1] has as its target Purified human alpha-thrombin (Homo sapiens, UniProt P00734). Put plainly: in vitro thrombin inhibition assay, IC50 (chromogenic substrate Pefachrome t-PA). Type of assay: biochemical. The following applies: Table 1; 0.25 nM thrombin, 300 μM substrate, pH 7.5, 30 minute incubation. On the procedure: (§1) The ability of the compounds of the present invention to act as inhibitors of thrombin and plasmin catalytic activity was assessed by determining the concentration which inhibited enzyme activity by 50%, (IC50), using the purified human enzymes.
(§2) The buffer used for all assays was HBSA (10 mM HEPES, pH 7.5, 150 mM sodium chloride, 0.1% bovine serum albumin).
(§3) The assay for IC50 determinations was conducted by combining in appropriate wells of a Corning microtiter plate, 50 microliters of HBSA, 50 microliters of the test compound at a specified concentration (covering a broad concentration range) diluted in HBSA (or HBSA alone for Vo (uninhibited velocity) measurement), and 50 microliters of the enzyme diluted in HBSA. Following a 30 minute incubation at ambient temperature, 50 microliters of the substrate at the concentrations specified below, was added to the wells yielding a final total volume of 200 microliters. The initial velocity of chromogenic substrate hydrolysis was measured by the change in absorbance at 405 nm using a Thermo Max® Kinetic Microplate Reader over a 5 minute period in which less than 5% of the added substrate was utilized. The concentration of added inhibitor which caused a 50% decrease in the initial rate of hydrolysis was defined as the IC50 value.
Thrombin catalytic activity was determined using the chromogenic substrate Pefachrome t-PA (CH3 SO2 -D-hexahydrotyrosine-glycyl-L-arginine-p-nitroaniline, obtained from Pentapharm Ltd.). The substrate was made up in deionized water followed by dilution in HBSA prior to the assay in which the final concentration was 300 μM (about 10-times Km). Purified human alpha-thrombin was obtained from Enzyme Research Laboratories, Inc. The enzyme was diluted into HBSA prior to the assay in which the final concentration was 0.25 nM.

Another assay concerns rat plasma. The assay is described as follows: activated partial thromboplastin time (APTT) in citrated rat plasma. Type of assay: biochemical. The following applies: control clotting time 19.75 sec. On the procedure:
(§4) The ex Vivo anticoagulant effects of BzlSO2 -Met[S(O2)]-Pro-Arg-al was determined by measuring the prolongation of the activated partial thromboplastin time (APTT) over a broad concentration range of the added inhibitor, using pooled normal human and rat plasma. Fresh frozen citrated pooled normal human plasma was obtained from George King Biomedical, Overland Park, Kans. Pooled normal rat plasma was prepared from citrated whole blood collected from anesthetized rats using standard procedures. The plasma was flash frozen and stored at -80° C. until use. Measurements APTT was made using the Coag-A-Mate RA4 automated coagulometer (General Diagnostics, Organon Technica, Oklahoma City, Okla.) using the Automated APTT reagent (Organon Technica, Durham, N.C.) as the initiator of clotting according to the manufacturer's instructions.
(§5) The assay was conducted by making a series of dilutions of the test compounds in rapidly thawed plasma followed by adding 200 microliters to the wells of the assay carousel.
(§6) The elevation in APTT due to increasing concentration of compound is presented relative to the control clotting time for rat (19.75 sec) and human (28.3 sec) plasma which is set to a value of 1.0.

A further assay addresses human alpha-thrombin (Homo sapiens, UniProt P00734). Put plainly: Determination of inhibition constant Ki for thrombin (steady state velocities, Pefachrome t-PA). Type of assay: biochemical. On the procedure: The ability of the compounds of the present invention to act as inhibitors of thrombin catalytic activity was assessed by determining their inhibition constant, Ki.
Enzyme activity was determined using the chromogenic substrate Pefachrome t-PA (CH3 SO2 -D-hexahydrotyrosine-glycyl-L-arginine-p-nitroaniline), obtained from Pentapharm Ltd. The substrate was reconstituted in deionized water prior to use. Purified human alpha-thrombin (3000U/mg specific activity) was obtained from Enzyme Research Laboratories, Inc. The buffer used for all assays was HBSA (10 mM HEPES, pH 7.5, 150 mM sodium chloride, 0.1% bovine serum albumin).
Velocities of chromogenic substrate hydrolysis which occurred over 40 minutes was measured by the change in absorbance at 405 nm using a Thermo Max® Kinetic Microplate Reader.
Ki values were determined for test compounds using the relationships developed by Williams and Morrison, Methods in Enzymology, 63:437 (1979) using steady state velocities (Vs) measured over 40 minutes. The extent of substrate hydrolysis was less than 5% over the course of this assay.
Table 2 below gives the Ki values for selected test compounds.

In the next assay the target is Purified human plasmin (Homo sapiens, UniProt P00747). The assay is described as follows: in vitro plasmin inhibition assay, IC50 (chromogenic substrate S-2251). Type of assay: biochemical. The following applies: Table 1; 1.0 nM plasmin, 300 μM substrate, pH 7.5, 30 minute incubation. Here is the method:
as §1, §2, §3
Plasmin catalytic activity was determined using the chromogenic substrate, S-2251 [D-valyl-L-leucyl-L-lysine-p-nirtoanilide dihydrochloride], which was obtained from Kabi Diagnostica. The substrate was made up in deionized water followed by dilution in HBSA prior to the assay in which the final concentration was 300 μM (about 5-times Km). Purified human plasmin was obtained from Enzyme Research Laboratories, Inc. The enzyme was diluted into HBSA prior to assay in which the final concentration was 1.0 nM.

A further assay relates to rat carotid artery. The assay is described as follows: Rat model of FeCl3-induced platelet-dependent arterial thrombosis. Type of assay: in vivo, rat (Male Harlan Sprague Dawley).
The next assay deals with human plasma. Put plainly: activated partial thromboplastin time (APTT) in citrated human plasma. In kind it is biochemical. The following applies: control clotting time 28.3 sec. On the procedure: as §4, §5, §6

Chain of Purified human plasmin (P00747 581-810 limits assumed): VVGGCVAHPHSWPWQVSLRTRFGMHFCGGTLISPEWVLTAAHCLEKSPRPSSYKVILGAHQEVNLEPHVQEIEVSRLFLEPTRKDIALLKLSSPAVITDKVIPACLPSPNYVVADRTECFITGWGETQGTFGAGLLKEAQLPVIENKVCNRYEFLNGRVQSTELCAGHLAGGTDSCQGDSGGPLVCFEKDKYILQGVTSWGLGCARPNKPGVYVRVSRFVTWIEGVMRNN
Chain of Purified human plasmin (P00747 97-580 limits assumed): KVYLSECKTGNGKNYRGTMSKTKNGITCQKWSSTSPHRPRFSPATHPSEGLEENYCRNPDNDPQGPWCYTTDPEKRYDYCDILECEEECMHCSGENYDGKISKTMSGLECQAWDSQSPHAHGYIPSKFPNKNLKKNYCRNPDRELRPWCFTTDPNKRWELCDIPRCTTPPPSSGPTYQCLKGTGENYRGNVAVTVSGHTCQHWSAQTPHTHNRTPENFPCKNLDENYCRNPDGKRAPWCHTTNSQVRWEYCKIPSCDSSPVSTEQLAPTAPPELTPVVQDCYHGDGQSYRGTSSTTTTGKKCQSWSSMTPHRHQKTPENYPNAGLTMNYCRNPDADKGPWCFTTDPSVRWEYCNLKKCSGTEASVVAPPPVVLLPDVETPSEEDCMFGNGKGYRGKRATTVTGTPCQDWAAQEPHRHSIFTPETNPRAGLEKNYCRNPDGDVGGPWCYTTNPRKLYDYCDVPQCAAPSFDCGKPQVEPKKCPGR
Description for rat carotid artery: In this model a platelet-rich, occlusive thrombus is formed in a segment of the rat carotid artery treated locally with a fresh solution of FeCl3 absorbed to a piece of filter paper. The FeCl3 is thought to diffuse into the treated segment of artery and causes de-endothelialization of the affected vessel surface. […] The effect of a test compound on the incidence of occlusive thrombus formation following the application of the FeCl3 is monitored by ultrasonic flowtometry and is used as the primary end point. […] Male Harlan Sprague Dawley rats (420-450 g) were acclimated at least 72 hours prior to use and fasted for 12 hours prior to surgery with free access to water. The animals were prepared, anesthetized with Nembutal followed by the insertion of catheters for blood pressure monitoring, drug and anesthesia delivery. The left carotid artery was isolated by making a midline cervical incision followed by blunt dissection and spreading techniques to separate a 2 cm segment of the vessel from the carotid sheath. A silk suture was inserted under the proximal and distal ends of the isolated vessel to provide clearance for the placement of a ultrasonic flow probe (Transonic) around the proximal end of the vessel. The probe was then secured with a stationary arm. […] The test compound was administered as a single intravenous bolus at the doses outlined in Table 3 after placement of the flow probe and 5 minutes prior to the application of the FeCl3 thrombogenic stimulus (t=0). […] Blood pressure, blood flow, heart rate, and respiration were monitored for 60 minutes. The incidence of occlusion (defined as the attainment of zero blood flow) was recorded as the primary end point.

Consider `CS(=O)(=O)CC[C@H](NS(=O)(=O)Cc1ccccc1)C(=O)N1CCC[C@H]1C(=O)N[C@H](C=O)CCCNC(=N)N` [Example 27, N-benzylsulfonyl-L-methionine sulfone-L-proline-L-argininal], for which the IC50 came out at 1 nM in assay [1] and 86 nM against Purified human plasmin. In addition, the “prolongation of APTT” value in the assay with rat plasma and in the assay with human plasma was “prolonged the APTT in a dose dependent manner” throughout. Besides, the inhibition constant (Ki) on human alpha-thrombin (Table 2, human alpha-thrombin 0.5 nM, steady state velocities over 40 minutes, read-out: Inhibitor Constants (Ki)) came to 1.06 nM; on human alpha-thrombin (Table 4, determined using human alphathrombin (footnote a), read-out: Ki), 1.06 nM. Besides, the “incidence of thrombotic occlusion (in words)” value in the assay on rat carotid artery (FeCl3 model, rat, over all doses of Table 3) is recorded as “reduction in the incidence of thrombotic occlusion”. Also, in the assay on rat carotid artery (Rattus norvegicus, read-out: ED50 for thrombus prevention), the median effective dose (ED50) worked out at 0.7 mg/kg.

Usually IC50 stands for the concentration needed to halve the response being measured. Read a low IC50 as inhibition by little substance. As usually defined, the Ki is the dissociation constant of the complex between target and ligand, obtained from inhibition or displacement. Usually ED50 stands for the dose at which the effect has come halfway, by size or by number of responders.
